Measurements from ChEMBL document CHEMBL1201862, “PubChem BioAssay data set” (2004).
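Interpolation was linear, between the two tested concentrations surrounding the appropriate level; five concentrations were tested over 48 hours in 96-well plates. GI50 marks 50% less growth.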 Active and inactive are the calls of the source. Cut-off read from the data, not from the text of the source: active = GI50 up to about 1.1 µM and inactive = higher.

Legend:
Assay in all cases: NCI anticancer screen, dose series, 48 h
[1] = system: MDA-N
[2] = system: HCC 2998
[3] = system: K562
[4] = system: HOP-92
[5] = system: A498
[6] = system: SNB-19
[7] = system: CCRF-CEM
[8] = system: UACC-257
[9] = system: SN12C
[10] = system: HL-60
[11] = system: SK-OV-3
[12] = system: TK-10
[13] = system: U-251
[14] = system: CAKI-1
[15] = system: OVCAR-8
[16] = system: MCF7
[17] = system: OVCAR-3
[18] = system: T47D
[19] = system: SK-MEL-28
[20] = system: UACC-62
[21] = system: SF-539
[22] = system: SW-620
[23] = system: NCI/ADR-RES
[24] = system: SR
[25] = system: Hs-578T
[26] = system: 786-0
[27] = system: A549
[28] = system: RPMI-8226
[29] = system: Malme-3M
[30] = system: SF-295
[31] = system: HCT-116
[32] = system: LOX IMVI
[33] = system: KM12
[34] = system: COLO 205
[35] = system: NCI-H460
[36] = system: OVCAR-4
[37] = system: IGROV-1
[38] = system: NCI-H23
[39] = system: UO-31
[40] = system: MDA-MB-231
[41] = system: SK-MEL-2
[42] = system: SF-268
[43] = system: NCI-H522
[44] = system: SNB-75
[45] = system: M14
[46] = system: OVCAR-5
[47] = system: ACHN
[48] = system: HCT-15
[49] = system: EKVX
[50] = system: MOLT-4
[51] = system: DU-145
[52] = system: NCI-H226
[53] = system: SK-MEL-5
[54] = system: HT-29
[55] = system: PC-3
[56] = system: HOP-62
[57] = system: MDA-MB-435
[58] = system: RXF 393

## O=C(O)CCCc1nc2c(n1-c1ccccc1)C(=O)c1ccccc1C2=O
[1]
  GI50: 43.5 µM (inactive)
[2]
  GI50: 91.8 µM (inactive)
[3]
  GI50: 69.8 µM (inactive)
[4]
  GI50: 49 µM (inactive)
[5]
  GI50: > 100 µM (inactive)
[6]
  GI50: > 100 µM (inactive)
[7]
  GI50: 40.7 µM (inactive)
[8]
  GI50: 33.2 µM (inactive)
[9]
  GI50: 52.5 µM (inactive)
[10]
  GI50: 37.4 µM (inactive)
[11]
  GI50: > 100 µM (inactive)
[12]
  GI50: > 100 µM (inactive)
[13]
  GI50: > 100 µM (inactive)
[14]
  GI50: > 100 µM (inactive)
[15]
  GI50: 53.5 µM (inactive)
[16]
  GI50: 32.6 µM (inactive)
[17]
  GI50: 33.6 µM (inactive)
[18]
  GI50: > 100 µM (inactive)
[19]
  GI50: > 100 µM (inactive)
[20]
  GI50: 32.8 µM (inactive)
[21]
  GI50: 94 µM (inactive)
[22]
  GI50: > 100 µM (inactive)
[23]
  GI50: > 100 µM (inactive)
[24]
  GI50: 77.8 µM (inactive)
[25]
  GI50: > 100 µM (inactive)
[26]
  GI50: > 100 µM (inactive)
[27]
  GI50: > 100 µM (inactive)
[28]
  GI50: 40.7 µM (inactive)
[29]
  GI50: 21.6 µM (inactive)
[30]
  GI50: 60 µM (inactive)
[31]
  GI50: 49.1 µM (inactive)
[32]
  GI50: > 100 µM (inactive)
[33]
  GI50: 31.3 µM (inactive)
[34]
  GI50: 52.5 µM (inactive)
[35]
  GI50: > 100 µM (inactive)
[36]
  GI50: 23.9 µM (inactive)
[37]
  GI50: > 100 µM (inactive)
[38]
  GI50: 65.8 µM (inactive)
[39]
  GI50: > 100 µM (inactive)
[40]
  GI50: 77.3 µM (inactive)
[41]
  GI50: 97.9 µM (inactive)
[42]
  GI50: 38.1 µM (inactive)
[43]
  GI50: 14.2 µM (inactive)
[44]
  GI50: 43.5 µM (inactive)
[45]
  GI50: 19.1 µM (inactive)
[46]
  GI50: > 100 µM (inactive)
[47]
  GI50: 68.1 µM (inactive)
[48]
  GI50: 74.5 µM
[49]
  GI50: 62.8 µM (inactive)
[50]
  GI50: 68.4 µM (inactive)
[51]
  GI50: > 100 µM (inactive)

## Cc1ccc(/C=C2\NC(=S)N(CN3CCOCC3)C2=O)cc1
[1]
  GI50: > 100 µM (inactive)
[3]
  GI50: > 100 µM (inactive)
[4]
  GI50: > 100 µM (inactive)
[5]
  GI50: > 100 µM (inactive)
[6]
  GI50: > 100 µM (inactive)
[7]
  GI50: > 100 µM (inactive)
[8]
  GI50: > 100 µM (inactive)
[9]
  GI50: > 100 µM (inactive)
[11]
  GI50: > 100 µM (inactive)
[12]
  GI50: > 100 µM (inactive)
[13]
  GI50: > 100 µM (inactive)
[52]
  GI50: > 100 µM (inactive)
[53]
  GI50: > 100 µM (inactive)
[54]
  GI50: > 100 µM (inactive)
[15]
  GI50: > 100 µM (inactive)
[16]
  GI50: 66.5 µM (inactive)
[17]
  GI50: > 100 µM (inactive)
[19]
  GI50: > 100 µM (inactive)
[20]
  GI50: > 100 µM (inactive)
[22]
  GI50: > 100 µM (inactive)
[23]
  GI50: > 100 µM (inactive)
[55]
  GI50: > 100 µM (inactive)
[24]
  GI50: > 100 µM (inactive)
[25]
  GI50: > 100 µM (inactive)
[26]
  GI50: > 100 µM (inactive)
[27]
  GI50: > 100 µM (inactive)
[28]
  GI50: > 100 µM (inactive)
[29]
  GI50: > 100 µM (inactive)
[30]
  GI50: > 100 µM (inactive)
[31]
  GI50: > 100 µM (inactive)
[32]
  GI50: > 100 µM (inactive)
[33]
  GI50: > 100 µM (inactive)
[34]
  GI50: > 100 µM (inactive)
[36]
  GI50: > 100 µM (inactive)
[37]
  GI50: > 100 µM (inactive)
[38]
  GI50: > 100 µM (inactive)
[39]
  GI50: > 100 µM (inactive)
[56]
  GI50: > 100 µM (inactive)
[40]
  GI50: > 100 µM (inactive)
[41]
  GI50: > 100 µM (inactive)
[42]
  GI50: > 100 µM (inactive)
[44]
  GI50: > 100 µM (inactive)
[45]
  GI50: > 100 µM (inactive)
[46]
  GI50: > 100 µM (inactive)
[47]
  GI50: > 100 µM (inactive)
[48]
  GI50: > 100 µM
[49]
  GI50: > 100 µM (inactive)
[57]
  GI50: > 100 µM (inactive)
[50]
  GI50: > 100 µM (inactive)
[51]
  GI50: > 100 µM (inactive)

## CCOC(=O)c1csc(NC(=O)CCN2CCCCC2)n1
[1]
  GI50: > 100 µM (inactive)
[2]
  GI50: > 100 µM (inactive)
[3]
  GI50: > 100 µM (inactive)
[4]
  GI50: > 100 µM (inactive)
[5]
  GI50: > 100 µM (inactive)
[6]
  GI50: > 100 µM (inactive)
[7]
  GI50: > 100 µM (inactive)
[8]
  GI50: > 100 µM (inactive)
[10]
  GI50: > 100 µM (inactive)
[11]
  GI50: > 100 µM (inactive)
[12]
  GI50: > 100 µM (inactive)
[13]
  GI50: > 100 µM (inactive)
[53]
  GI50: > 100 µM (inactive)
[14]
  GI50: > 100 µM (inactive)
[54]
  GI50: > 100 µM (inactive)
[15]
  GI50: > 100 µM (inactive)
[16]
  GI50: > 100 µM (inactive)
[17]
  GI50: > 100 µM (inactive)
[18]
  GI50: > 100 µM (inactive)
[19]
  GI50: > 100 µM (inactive)
[20]
  GI50: > 100 µM (inactive)
[21]
  GI50: > 100 µM (inactive)
[22]
  GI50: > 100 µM (inactive)
[23]
  GI50: > 100 µM (inactive)
[55]
  GI50: > 100 µM (inactive)
[24]
  GI50: > 100 µM (inactive)
[27]
  GI50: > 100 µM (inactive)
[28]
  GI50: > 100 µM (inactive)
[29]
  GI50: > 100 µM (inactive)
[30]
  GI50: > 100 µM (inactive)
[32]
  GI50: > 100 µM (inactive)
[34]
  GI50: > 100 µM (inactive)
[35]
  GI50: > 100 µM (inactive)
[36]
  GI50: > 100 µM (inactive)
[37]
  GI50: > 100 µM (inactive)
[38]
  GI50: > 100 µM (inactive)
[39]
  GI50: > 100 µM (inactive)
[56]
  GI50: > 100 µM (inactive)
[40]
  GI50: > 100 µM (inactive)
[41]
  GI50: > 100 µM (inactive)
[45]
  GI50: > 100 µM (inactive)
[46]
  GI50: > 100 µM (inactive)
[47]
  GI50: > 100 µM (inactive)
[48]
  GI50: > 100 µM
[49]
  GI50: > 100 µM (inactive)
[58]
  GI50: > 100 µM (inactive)
[57]
  GI50: > 100 µM (inactive)
[50]
  GI50: 73.3 µM (inactive)
[51]
  GI50: > 100 µM (inactive)
